The CheMixHub viscosity set

Assay: xn = mol fraction of the nth substance listed

COC(=O)CC(C)=O + CO
viscosity [mPa·s], 101.3 kPa
Details | x1 = 0.1017 | x1 = 0.1887 | x1 = 0.3013 | x1 = 0.4048 | x1 = 0.5038 | x1 = 0.6056 | x1 = 0.7015 | x1 = 0.8024 | x1 = 0.8994
298.15 K | 0.599 | 0.662 | 0.757 | 0.858 | 0.954 | 1.064 | 1.163 | 1.288 | 1.413
303.15 K | 0.563 | 0.618 | 0.704 | 0.793 | 0.879 | 0.978 | 1.066 | 1.176 | 1.288
308.15 K | 0.525 | 0.578 | 0.657 | 0.737 | 0.815 | 0.902 | 0.984 | 1.082 | 1.18

COC(=O)CC(C)=O + COC(=O)c1ccccc1
viscosity [mPa·s], 101.33 kPa
Details | x1 = 0.0981 | x1 = 0.1935 | x1 = 0.2966 | x1 = 0.4001 | x1 = 0.4987 | x1 = 0.5986 | x1 = 0.6984 | x1 = 0.798 | x1 = 0.8977
298.15 K | 1.775 | 1.732 | 1.703 | 1.667 | 1.639 | 1.615 | 1.598 | 1.583 | 1.569
303.15 K | 1.609 | 1.573 | 1.548 | 1.515 | 1.49 | 1.469 | 1.453 | 1.44 | 1.429
308.15 K | 1.467 | 1.435 | 1.413 | 1.382 | 1.362 | 1.343 | 1.329 | 1.316 | 1.306

COC(=O)CC(C)=O + COC(C)=O
viscosity [mPa·s], 101.33 kPa
Details | x1 = 0.0996 | x1 = 0.1998 | x1 = 0.3009 | x1 = 0.397 | x1 = 0.4973 | x1 = 0.5975 | x1 = 0.6969 | x1 = 0.7993 | x1 = 0.9006
298.15 K | 0.448 | 0.52 | 0.596 | 0.688 | 0.798 | 0.915 | 1.044 | 1.202 | 1.373
303.15 K | 0.424 | 0.489 | 0.564 | 0.643 | 0.744 | 0.843 | 0.963 | 1.104 | 1.257
308.15 K | 0.403 | 0.463 | 0.533 | 0.603 | 0.696 | 0.786 | 0.913 | 1.024 | 1.155

COc1ccc(C=O)cc1 + COCCO
viscosity [mPa·s], 101 kPa
Details | x1 = 0.0753 | x1 = 0.1549 | x1 = 0.2391 | x1 = 0.3283 | x1 = 0.4231 | x1 = 0.5238 | x1 = 0.6311 | x1 = 0.7457 | x1 = 0.8684
303.15 K | 1.502 | 1.518 | 1.567 | 1.656 | 1.793 | 1.984 | 2.242 | 2.577 | 3.006
308.15 K | 1.463 | 1.488 | 1.537 | 1.614 | 1.723 | 1.87 | 2.062 | 2.308 | 2.617
313.15 K | 1.214 | 1.258 | 1.32 | 1.404 | 1.513 | 1.651 | 1.824 | 2.037 | 2.298
318.15 K | 1.129 | 1.175 | 1.236 | 1.312 | 1.408 | 1.525 | 1.669 | 1.843 | 2.054

COc1ccc(C=O)cc1 + Cc1cc(C)cc(C)c1
viscosity [mPa·s], 101 kPa
Details | x1 = 0.1142 | x1 = 0.2248 | x1 = 0.3321 | x1 = 0.4361 | x1 = 0.537 | x1 = 0.635 | x1 = 0.7302 | x1 = 0.8227 | x1 = 0.9126
303.15 K | 0.686 | 0.766 | 0.825 | 1.044 | 1.283 | 1.581 | 1.77 | 2.826 | 2.963
308.15 K | 0.645 | 0.713 | 0.7707 | 0.96 | 1.148 | 1.395 | 1.582 | 2.452 | 2.665
313.15 K | 0.438 | 0.487 | 0.547 | 0.676 | 0.825 | 1 | 1.094 | 1.859 | 1.969
318.15 K | 0.392 | 0.435 | 0.5 | 0.614 | 0.733 | 0.9 | 1 | 1.517 | 1.713

COc1ccc(C=O)cc1 + Cc1ccc(O)cc1
Details | viscosity [mPa·s]
308.15 K, 101 kPa, x1 = 0.8868 | 3.965

COc1ccc(C=O)cc1 + Cc1cccc(O)c1
Details | viscosity [mPa·s]
318.15 K, 101 kPa, x1 = 0.4656 | 4.085

CCOC(C)=O + Cc1ccccc1
viscosity [mPa·s], 101 kPa
Details | 298.15 K | 308.15 K
x1 = 0.045 | 0.538 | 0.49
x1 = 0.1 | 0.534 | –
x1 = 0.1501 | 0.514 | 0.472
x1 = 0.21 | 0.512 | –
x1 = 0.2483 | 0.495 | 0.457
x1 = 0.31 | 0.506 | –
x1 = 0.3517 | 0.478 | 0.443
x1 = 0.41 | 0.484 | –
x1 = 0.4469 | 0.464 | 0.431
x1 = 0.4912 | 0.459 | 0.426
x1 = 0.51 | 0.482 | –
x1 = 0.5503 | 0.452 | 0.42
x1 = 0.61 | 0.478 | –
x1 = 0.6489 | 0.443 | 0.411
x1 = 0.71 | 0.455 | –
x1 = 0.749 | 0.436 | 0.403
x1 = 0.81 | 0.445 | –
x1 = 0.8507 | 0.431 | 0.395
x1 = 0.9 | 0.428 | –
x1 = 0.9432 | 0.429 | 0.39
x2 = 0.1513 | 0.466 | –
x2 = 0.442 | 0.481 | –
x2 = 0.7034 | 0.509 | –
